# According to patent US8501806B2, “Methods for preventing or reducing colon carcinogenesis” (Nogra Pharma Limited, priority 2008, dated 2013):
# How the values were obtained:
# [1] = tested on: established CT26-derived tumors; experiment: Growth of established CT26 xenografts; format: in vivo, Balb/c mice; conditions: subcutaneously 80 mg/kg mouse/day for 2 weeks from day 14
# Method: CT26 cells (1×10^5 cells in 300 μl PBS 1×) were injected subcutaneously into the flank of Balb/c mice, whose fur was shaved and depilated. Five groups of 10 mice each were implanted with CT26. The first group received daily subcutaneously 300 μl PBS (control), the remaining groups received daily subcutaneously compound 14 at a final dose of 1, 4, 8, or 12 mg/kg/mouse dissolved in 300 μl PBS. Both compound 14 and PBS were administered starting on day 3. Further experimentation was performed to assess whether compound 14 had anti-cancer activity when administered systemically. […] Mice were monitored over the time for weight loss. After 2 weeks, mice were sacrificed, tumors were photographed, then excised and their mass calculated according to the following formula: ½×(short diameter)×(long diameter)×(height). Total extracts were prepared from xenografts and analyzed for cyclin D1 protein content by Western blotting using a commercially available antibody (Santa Cruz Biotechnology). […] After 2 weeks, mice with similar tumor size, determined by caliper measurements, were divided into three groups of 8 mice each. […] Mice were monitored over the time for weight loss. After 2 weeks, mice were sacrificed, tumors were photographed, then excised and their mass calculated as described above. […] Mice were monitored over the time and sacrificed at day 28.
# HCT-116 cells = experiment: CFSE cell proliferation assay, HCT-116 cells; format: cell-based, human; conditions: equivalent concentrations; data not shown
# Method: All reagents used in Examples 1-3 were from Sigma-Aldrich (Milan, Italy) unless specified. Compounds were dissolved as a 25 mM stock solution in culture medium, and the pH of the solution was adjusted to 7.4, if necessary, with NaOH. The human CRC cell lines, HCT-116 and HT-29 (expressing either wild-type or mutated p53 respectively), were maintained in McCoy's 5A supplemented with 10% fetal bovine serum (FBS), 1% penicillin/streptomycin, and 50 μg/ml gentamycin. The murine CRC cell line, CT26, was maintained in RPMI 1640 medium supplemented with 10% FBS and 1% penicillin/streptomycin.
# For cell growth assays, serum-starved HCT-116, HT-29, and CT26 cells were plated in appropriate complete medium at 2×10^5 cells/ml/well in 6-well culture dishes and allowed to adhere overnight. Cells were then labeled with carboxyfluorescein diacetate succinimidyl ester (CFSE) (Invitrogen, Milan Italy) at 37° C. according to the manufacturer's instruction. After 30 minutes, the medium was removed and fresh media containing 0.05% bovine serum albumin (BSA), and increasing doses of 5-ASA or disclosed compounds were added. After 24 hours, cells were collected, washed twice with PBS 1×, and then incubated with 5 μg/ml of PI for 15 minutes, at 4° C. in the dark. CFSE and/or PI-positive cells were determined by flow cytometry (Becton Dickinson, FACSCalibur, Milan, Italy). To determine whether the negative effect of compound 14 (2-methoxy-5-amino-N-hydroxybenzamide) on proliferation was reversible, cells were cultured in the presence or absence of compound 14 (1.5 and 3 mM) for 24 hours (1st culture). Afterwards, cells were either left untreated or extensively washed and cultured with medium in the absence of compound 14 for additional 24 hours (2nd culture). The percentage of proliferating cells was then evaluated by flow cytometry.
SMILES,tumor size of established CT26-derived tumors vs PBS [1],effect on cell proliferation (osmotic control) (HCT-116 cells)
"Nc1ccc(O)c(C(=O)O)c1 [5-ASA, 5-amino salicylic acid, reference compound]",not 5-ASA significantly reduced,–
"OC[C@@H](O)[C@@H](O)[C@H](O)[C@H](O)CO [mannitol, reference compound]",–,No effect
